Converted amounts (≈) assume the structure as drawn.
Assays:
Format in all cases: functional
[1] = system: Mycobacterium tuberculosis; assay: AntiMycobacterium tuberculosis activity 1-week GAST/Fe MIC (uM); settings: 168 h
[2] = system: Mycobacterium tuberculosis; assay: AntiMycobacterium tuberculosis activity 2-week Alamar Blue 7H9/ADC/Tw MIC (uM); settings: 336 h
[3] = system: Mycobacterium tuberculosis; assay: AntiMycobacterium tuberculosis activity 1-week 7H9/cholesterol/BSA/Tx MIC (uM); settings: 168 h
[4] = system: Mycobacterium tuberculosis; assay: AntiMycobacterium tuberculosis activity day 21 in 7H9/2.5mM butyrate/pH6/0.1mM nitrite MIC90 (uM); settings: 504 h
[5] = system: Mycobacterium tuberculosis; assay: AntiMycobacterium tuberculosis activity 2-week 7H9/DPPC/cholesterol/BSA/Tx MIC (uM); settings: 336 h
[6] = system: Mycobacterium tuberculosis; assay: AntiMycobacterium tuberculosis activity 1-week 7H9/DPPC/cholesterol/BSA/Tx MIC (uM); settings: 168 h
[7] = system: Mycobacterium tuberculosis; assay: AntiMycobacterium tuberculosis activity 2-week GAST/Fe MIC (uM); settings: 336 h
[8] = system: Mycobacterium tuberculosis; assay: AntiMycobacterium tuberculosis activity day 21 MIC99 in 7H9/2.5mM butyrate/pH6/0.1mM nitrite MIC99 (uM); settings: 504 h
[9] = system: Mycobacterium tuberculosis; assay: (§1) AntiMycobacterium tuberculosis activity day 10 in 7H9/2.5mM butyrate/pH6/0.1mM nitrite MIC90 (uM); settings: 240 h
[10] = system: Mycobacterium tuberculosis; assay: as §1; settings: 240 h; remark: listed apart in the source
[11] = system: HepG2; assay: HepG2 glucose CC50 (uM) Cytotoxicity
[12] = system: Mycobacterium tuberculosis; assay: AntiMycobacterium tuberculosis activity 2-week 7H9/glucose/BSA/Tx MIC (uM); settings: 336 h
[13] = system: Mycobacterium tuberculosis; assay: AntiMycobacterium tuberculosis activity 1-week 7H9/glucose/BSA/Tx MIC (uM); settings: 168 h
[14] = system: Mycobacterium tuberculosis; assay: AntiMycobacterium tuberculosis activity 1-week 7H9/ADC/Tw MIC (uM); settings: 168 h
[15] = system: HepG2; assay: HepG2 galactose CC50 (uM) Cytotoxicity
[16] = system: Mycobacterium tuberculosis; assay: AntiMycobacterium tuberculosis activity 2-week Alamar Blue 7H9/cholesterol/BSA/Tx MIC (uM); settings: 336 h
[17] = system: Mycobacterium tuberculosis; assay: AntiMycobacterium tuberculosis activity 2-week 7H9/ADC/Tw MIC (uM); settings: 336 h

## CC(=O)N1CCc2cc3nc(C)cc(C)c3cc21
[1]
  MIC: 0.15 µM (≈ 0.036 µg/mL)
[2]
  MIC: 4.7 µM (≈ 1.13 µg/mL)
[3]
  MIC: 3.13 µM (≈ 0.752 µg/mL)
[4]
  MIC90: 12.5 µM (≈ 3 µg/mL)
[5]
  MIC: 25 µM (≈ 6.01 µg/mL)
[6]
  MIC: 2.3 µM (≈ 0.553 µg/mL)
[7]
  MIC: 0.39 µM (≈ 0.0937 µg/mL)
[8]
  MIC: > 50 µM
[9]
  MIC90: > 50 µM
[10]
  MIC90: 6.25 µM (≈ 1.5 µg/mL)
[11]; Homo sapiens, HepG2
  CC50: > 50 µM
[12]
  MIC: > 50 µM
[13]
  MIC: > 50 µM
[14]
  MIC: > 50 µM
[15]; Homo sapiens, HepG2
  CC50: > 50 µM
[16]
  MIC: 2.3 µM (≈ 0.553 µg/mL)
[17]
  MIC: > 50 µM

## Brc1cncc(-c2cc(NCCCn3ccnc3)nc(-c3ccccc3)n2)c1
[1]
  MIC: 12.5 µM (≈ 5.44 µg/mL)
[2]
  MIC: 12.5 µM (≈ 5.44 µg/mL)
[3]
  MIC: 9.4 µM (≈ 4.09 µg/mL)
[4]
  MIC90: 12.5 µM (≈ 5.44 µg/mL)
[5]
  MIC: 9.4 µM (≈ 4.09 µg/mL)
[6]
  MIC: 6.25 µM (≈ 2.72 µg/mL)
[7]
  MIC: 12.5 µM (≈ 5.44 µg/mL)
[8]
  MIC: > 50 µM
[9]
  MIC90: > 50 µM
[10]
  MIC90: 12.5 µM (≈ 5.44 µg/mL)
[11]
  CC50: 28.3 µM
[11]; Homo sapiens, HepG2
  CC50: 16.4 µM
[12]
  MIC: 12.5 µM (≈ 5.44 µg/mL)
[13]
  MIC: 4.7 µM (≈ 2.05 µg/mL)
[14]
  MIC: 37 µM (≈ 16.1 µg/mL)
[15]
  CC50: > 50 µM
[15]; Homo sapiens, HepG2
  CC50: 43.6 µM
[16]
  MIC: 6.25 µM (≈ 2.72 µg/mL)
[17]
  MIC: 25 µM (≈ 10.9 µg/mL)

## CCOc1ccc(-c2nc(CNCCc3ccc(F)cc3)cs2)cc1
[1]
  MIC: 19 µM (≈ 6.77 µg/mL)
[2]
  MIC: 25 µM (≈ 8.91 µg/mL)
[3]
  MIC: 9.4 µM (≈ 3.35 µg/mL)
[4]
  MIC90: 25 µM (≈ 8.91 µg/mL)
[5]
  MIC: 12.5 µM (≈ 4.46 µg/mL)
[6]
  MIC: 12.5 µM (≈ 4.46 µg/mL)
[7]
  MIC: 12.5 µM (≈ 4.46 µg/mL)
[8]
  MIC: 50 µM (≈ 17.8 µg/mL)
[9]
  MIC90: 50 µM (≈ 17.8 µg/mL)
[10]
  MIC90: 25 µM (≈ 8.91 µg/mL)
[11]
  CC50: 35.4 µM
[11]; Homo sapiens, HepG2
  CC50: 33.3 µM
[12]
  MIC: 19 µM (≈ 6.77 µg/mL)
[13]
  MIC: 19 µM (≈ 6.77 µg/mL)
[14]
  MIC: 25 µM (≈ 8.91 µg/mL)
[15]
  CC50: 24 µM
[15]; Homo sapiens, HepG2
  CC50: 21.2 µM
[16]
  MIC: 12.5 µM (≈ 4.46 µg/mL)
[17]
  MIC: 25 µM (≈ 8.91 µg/mL)

## CN1CCN(c2cc(-c3ccc(F)cc3)nc(-c3ccncc3)n2)CC1
[1]
  MIC: 19 µM (≈ 6.64 µg/mL)
[2]
  MIC: 12.5 µM (≈ 4.37 µg/mL)
[3]
  MIC: 12.5 µM (≈ 4.37 µg/mL)
[4]
  MIC90: 12.5 µM (≈ 4.37 µg/mL)
[5]
  MIC: 6.25 µM (≈ 2.18 µg/mL)
[6]
  MIC: 6.25 µM (≈ 2.18 µg/mL)
[7]
  MIC: 12.5 µM (≈ 4.37 µg/mL)
[8]
  MIC: > 50 µM
[9]
  MIC90: > 50 µM
[10]
  MIC90: 6.25 µM (≈ 2.18 µg/mL)
[11]; Homo sapiens, HepG2
  CC50: > 50 µM
[12]
  MIC: 9.4 µM (≈ 3.28 µg/mL)
[13]
  MIC: 12.5 µM (≈ 4.37 µg/mL)
[14]
  MIC: 37 µM (≈ 12.9 µg/mL)
[15]; Homo sapiens, HepG2
  CC50: > 50 µM
[16]
  MIC: 6.25 µM (≈ 2.18 µg/mL)
[17]
  MIC: 25 µM (≈ 8.74 µg/mL)

## O=C(c1ccco1)N(CCCn1ccnc1)c1nc2c(Cl)cccc2s1
[1]
  MIC: 25 µM (≈ 9.67 µg/mL)
[2]
  MIC: 25 µM (≈ 9.67 µg/mL)
[3]
  MIC: 12.5 µM (≈ 4.84 µg/mL)
[4]
  MIC90: 25 µM (≈ 9.67 µg/mL)
[5]
  MIC: 37 µM (≈ 14.3 µg/mL)
[6]
  MIC: 37 µM (≈ 14.3 µg/mL)
[7]
  MIC: 37 µM (≈ 14.3 µg/mL)
[8]
  MIC: > 50 µM
[9]
  MIC90: > 50 µM
[10]
  MIC90: 25 µM (≈ 9.67 µg/mL)
[11]; Homo sapiens, HepG2
  CC50: > 50 µM
[12]
  MIC: 37 µM (≈ 14.3 µg/mL)
[13]
  MIC: 50 µM (≈ 19.3 µg/mL)
[14]
  MIC: ≥ 50 µM
[15]; Homo sapiens, HepG2
  CC50: > 50 µM
[16]
  MIC: 12.5 µM (≈ 4.84 µg/mL)
[17]
  MIC: 50 µM (≈ 19.3 µg/mL)

## O=C(N[C@H](Cc1ccccc1)C(=O)Nc1ccccc1N1CCOCC1)c1cccs1
[1]
  MIC: 0.15 µM (≈ 0.0653 µg/mL)
[2]
  MIC: 1.2 µM (≈ 0.523 µg/mL)
[3]
  MIC: 1.56 µM (≈ 0.679 µg/mL)
[4]
  MIC90: 12.5 µM (≈ 5.44 µg/mL)
[5]
  MIC: 2.3 µM (≈ 1 µg/mL)
[6]
  MIC: 2.3 µM (≈ 1 µg/mL)
[7]
  MIC: 0.15 µM (≈ 0.0653 µg/mL)
[8]
  MIC: > 50 µM
[9]
  MIC90: > 50 µM
[10]
  MIC90: 6.25 µM (≈ 2.72 µg/mL)
[11]; Homo sapiens, HepG2
  CC50: > 50 µM
[12]
  MIC: 4.7 µM (≈ 2.05 µg/mL)
[13]
  MIC: 3.13 µM (≈ 1.36 µg/mL)
[14]
  MIC: 1.2 µM (≈ 0.523 µg/mL)
[15]; Homo sapiens, HepG2
  CC50: > 50 µM
[16]
  MIC: 3.13 µM (≈ 1.36 µg/mL)
[17]
  MIC: 1.2 µM (≈ 0.523 µg/mL)

## COc1cc(Br)cc2cc(C(=O)Nc3cccc(C(F)(F)F)c3)c(=O)oc12
[1]
  MIC: 1.2 µM (≈ 0.531 µg/mL)
[2]
  MIC: > 50 µM
[3]
  MIC: 6.25 µM (≈ 2.76 µg/mL)
[4]
  MIC90: 12.5 µM (≈ 5.53 µg/mL)
[5]
  MIC: 9.4 µM (≈ 4.16 µg/mL)
[6]
  MIC: 2.3 µM (≈ 1.02 µg/mL)
[7]
  MIC: 4.7 µM (≈ 2.08 µg/mL)
[8]
  MIC: 12.5 µM (≈ 5.53 µg/mL)
[9]
  MIC90: 12.5 µM (≈ 5.53 µg/mL)
[10]
  MIC90: 1.5 µM (≈ 0.663 µg/mL)
[11]; Homo sapiens, HepG2
  CC50: > 50 µM
[12]
  MIC: 9.4 µM (≈ 4.16 µg/mL)
[13]
  MIC: 1.56 µM (≈ 0.69 µg/mL)
[14]
  MIC: 50 µM (≈ 22.1 µg/mL)
[15]; Homo sapiens, HepG2
  CC50: > 50 µM
[16]
  MIC: 12.5 µM (≈ 5.53 µg/mL)
[17]
  MIC: > 50 µM

## COc1ccc2nccc(NC(=O)C3CCN(CCc4ccc(Cl)cc4)CC3)c2n1
[1]
  MIC: 0.3 µM (≈ 0.127 µg/mL)
[2]
  MIC: 0.39 µM (≈ 0.166 µg/mL)
[3]
  MIC: 0.39 µM (≈ 0.166 µg/mL)
[4]
  MIC90: 0.78 µM (≈ 0.331 µg/mL)
[5]
  MIC: 0.78 µM (≈ 0.331 µg/mL)
[6]
  MIC: 0.39 µM (≈ 0.166 µg/mL)
[7]
  MIC: 0.39 µM (≈ 0.166 µg/mL)
[8]
  MIC: > 50 µM
[9]
  MIC90: > 50 µM
[10]
  MIC90: 0.39 µM (≈ 0.166 µg/mL)
[11]; Homo sapiens, HepG2
  CC50: > 50 µM
[12]
  MIC: 0.78 µM (≈ 0.331 µg/mL)
[13]
  MIC: 0.39 µM (≈ 0.166 µg/mL)
[14]
  MIC: 0.39 µM (≈ 0.166 µg/mL)
[15]; Homo sapiens, HepG2
  CC50: > 50 µM
[16]
  MIC: 0.6 µM (≈ 0.255 µg/mL)
[17]
  MIC: 0.39 µM (≈ 0.166 µg/mL)

## CC(=O)NC[C@H]1CN(c2ccc(N3CCSCC3)c(F)c2)C(=O)O1 [SUTEZOLID]
[1]
  MIC: 0.2 µM (≈ 0.0707 µg/mL)
[2]
  MIC: 0.78 µM (≈ 0.276 µg/mL)
[3]
  MIC: 0.39 µM (≈ 0.138 µg/mL)
[4]
  MIC90: 0.39 µM (≈ 0.138 µg/mL)
[5]
  MIC: 1.2 µM (≈ 0.424 µg/mL)
[6]
  MIC: 0.6 µM (≈ 0.212 µg/mL)
[7]
  MIC: 0.6 µM (≈ 0.212 µg/mL)
[8]
  MIC: 0.78 µM (≈ 0.276 µg/mL)
[9]
  MIC90: 0.39 µM (≈ 0.138 µg/mL)
[10]
  MIC90: 0.19 µM (≈ 0.0671 µg/mL)
[11]; Homo sapiens, HepG2
  CC50: > 50 µM
[12]
  MIC: 1.2 µM (≈ 0.424 µg/mL)
[13]
  MIC: 0.6 µM (≈ 0.212 µg/mL)
[14]
  MIC: 1.2 µM (≈ 0.424 µg/mL)
[15]; Homo sapiens, HepG2
  CC50: > 50 µM
[16]
  MIC: 0.78 µM (≈ 0.276 µg/mL)
[17]
  MIC: 1.2 µM (≈ 0.424 µg/mL)
